According to patent US7820374B2, “Detection methods based on HR23 protein binding molecules” (Erasmus Universiteit Rotterdam, priority 2001, dated 2010):
Where a SMILES comes first, the peptide text is derived from it. The star is where a group is joined. Cbz = O=C(OCc1ccccc1)*

Columns and labels:
[1] = tested on: DKO cells expressing hXPC-GFP/hHR23B; experiment: XPC-GFP accumulation in living DKO cells expressing hXPC-GFP/hHR23B after exposure to agents (fluorescence microscopy); assay type: cell-based, mouse
Method: Cells stably expressing hXPC-GFP/hHR23B were rinsed with PBS, exposed to UV-C light (254 nm; Philips TUV lamp, dose as indicated in the text) and subsequently cultured at 37° C. for various time periods (as indicated in the text). XPC was detected either by immunoblot analysis or by visualization in living cells using fluorescence microscopy. A similar approach was used to study the effect of N-acetoxy-2-acetylaminofluorene (NA-AAF, final concentration 50 or 100 μM), mitomycin C (MMC, Sigma, final concentration 1.2 or 2.4 μg/ml), ionizing radiation (γ-rays from a ^137Cs source, single dose of 6 and 10 Gy), the proteasome inhibitor N-CBZ-LEU-LEU-LEU-AL (CBZ-LLL, Sigma, final concentration 5 or 10 μM), the transcription inhibitor 5,6-dichloro-1β-D-ribofuranosyl-benzimidazole (DRB, Sigma, final concentration of 100 μM, 2-3 hrs), the translation inhibitor cyclohexamide (CHX, Boehringer, final concentration 30, 50, and 100 μg/ml, 1-3 hours), heat shock (39.5 and 41° C., for 2-12 hrs), and the nuclear export inhibitor leptomycin B (LMB, Sigma, final concentration 10 ng/ml).
Immunofluorescent microscopy images were obtained with either a Leitz Aristoplan microscope equipped with epifluorescene optics and a PlanApo 63×/1.40 oil immersion lens or a Leica DMRBE microscope equipped with epifluorescene optics and a PL Fluotar 100×/1.30 oil immersion lens. For the detection of GFP-tagged proteins in the living cell, an Olympus IX70 microscope equipped with epifluorescence optics and Olympus PlanApo 60×/1.40 oil immersion lens was used. GFP images were obtained after excitation with 455-490 and long pass emission filter (>510 nm). Cy-3 images were obtained after excitation with 515-560 and long pass emission filter (580 nm).

[2] = tested on: CRM1/Exportin1-mediated nuclear export of XPC-GFP; experiment: Heterokaryon nuclear-cytoplasmic shuttling assay (DKO cells expressing XPC-GFP/hHR23B fused to HeLa cells); assay type: cell-based, mouse/human heterokaryon; conditions: LMB 10 ng/ml directly after cell fusion; XPC-GFP induced by 10 J/m^2 UV-C 6 hr prior to fusion; 4 hr after fusion
Method: The shuttling assay using heterokaryons was performed as described (Borer et al., 1989). One day before cell fusion, DKO cells stably expressing hXCPC-GFP/hHR23B and HeLa cells were seeded in a 1:1 ratio on coverslips. Six hours prior to fusion, cells were irradiated with 10 J/m^2 UV-C or treated with 10 μM CBZ-LLL. Cell-fusion was induced (after washing with PBS) by treatment with 50% polyethylene glycol 6,000 in HANKS™ (Gibco) for 2 min followed by (3×) washing with PBS. Finally, cells were cultured in fresh medium either supplemented with or without leptomycin B (LMB, final concentration 10 ng/ml). Three to five hours after fusion, cells were fixed with 2% paraformaldehyde and immunostained with rat monoclonal anti-HA (to monitor the XPC-GFP-His6HA protein) and rabbit polyclonal anti-human ERCC1 (to distinguish human nuclei from mouse nuclei, since it specifically recognizes human ERCC1) and subsequently with appropriate secondary antibodies (see above).

For `CC(C)C[C@@H](C=O)NC(=O)[C@H](CC(C)C)NC(=O)[C@H](CC(C)C)NC(=O)OCc1ccccc1` [CBZ-LLL, N-CBZ-LEU-LEU-LEU-AL] (Cbz-Leu-Leu-Leu-aldehyde), the “reversibility of XPC-GFP accumulation” value ([1]; CBZ-LLL 5 and 10 μM, after drug removal (not shown)) was “reversible upon drug removal” and the XPC-GFP accumulation ([1]; CBZ-LLL 5 and 10 μM, confirmed by immunoblot and anti-HA immunocytochemistry) was “all cells displayed a striking XPC-GFP accumulation in time”.

In the case of `OC[C@H]1O[C@@H](n2cnc3cc(Cl)c(Cl)cc32)[C@H](O)[C@@H]1O` [DRB, 5,6-dichloro-1β-D-ribofuranosyl-benzimidazole], the “induction of XPC-GFP fluorescence” value ([1]; DRB 100 μM alone, no DNA damage) is reported as “No induction of XPC-GFP fluorescence was observed” and the “UV-induced XPC-GFP accumulation” value ([1]; preincubation with DRB (2-3 hrs) prior to UV treatment, data not shown) is reported as “prevented UV-induced XPC-GFP accumulation”.

`CCC(=C/[C@H](C)C/C=C/C(C)=C/[C@@H](C)C(=O)[C@@H](C)[C@H](O)[C@@H](C)C/C(C)=C/C(=O)O)/C=C/[C@@H]1OC(=O)C=C[C@@H]1C` [LMB, leptomycin B] was tested, and the “exchange of nuclear XPC-GFP from mouse (DKO) nuclei to human (HeLa) nuclei” value [2] was “prevented this exchange”.

For `CO[C@@]12[C@H](COC(N)=O)C3=C(C(=O)C(C)=C(N)C3=O)N1C[C@@H]1N[C@@H]12` [MMC, mitomycin C], the “XPC accumulation (hXPC-GFP fluorescence)” value ([1]; MMC 1.2 and 2.4 μg/ml) was “failed to provoke detectable XPC accumulation”.

`CC(=O)ON(C(C)=O)c1ccc2c(c1)Cc1ccccc1-2` [NA-AAF, N-acetoxy-2-acetylaminofluorene] was tested, and the “XPC accumulation (hXPC-GFP fluorescence)” value ([1]; NA-AAF 50 and 100 μM, within 6 to 8 hrs) was “very potent UV-like response in all cells”.

With `C[C@@H]1C[C@@H]([C@H](O)CC2CC(=O)NC(=O)C2)C(=O)[C@@H](C)C1` [cyclohexamide] the XPC fluorescence ([1]; cyclohexamide 30 and 50 μg/ml) was “no enhanced XPC fluorescence was found”.
